From patent US9200051B2, “Peptide compound” (TAKEDA PHARMACEUTICAL COMPANY LIMITED, priority 2013, dated 2015)
Square brackets hold non-standard residues; d marks the D form. Peptide text beside a SMILES is read from it. NMeY = CN[C@@H](Cc1ccc(O)cc1)C(=O)O; αMeF = C[C@](N)(Cc1ccccc1)C(=O)O; Aib = CC(C)(N)C(=O)O

What was measured:
Format in all cases: cell-based
[1] = target: T1, human GLP-1R (Homo sapiens, UniProt P43220); assay: Agonist activity against human GLP-1R, CRE-luciferase reporter assay in hGLP-1R/CRE-luc/CHO-K1 cells
T1 construct: expressed in transfected cells; host or cells: CHO-K1, plasmids hGLP-1/pIRESneo3 and Cre-luc(Zeo)
T1 sequence (P43220 24-463): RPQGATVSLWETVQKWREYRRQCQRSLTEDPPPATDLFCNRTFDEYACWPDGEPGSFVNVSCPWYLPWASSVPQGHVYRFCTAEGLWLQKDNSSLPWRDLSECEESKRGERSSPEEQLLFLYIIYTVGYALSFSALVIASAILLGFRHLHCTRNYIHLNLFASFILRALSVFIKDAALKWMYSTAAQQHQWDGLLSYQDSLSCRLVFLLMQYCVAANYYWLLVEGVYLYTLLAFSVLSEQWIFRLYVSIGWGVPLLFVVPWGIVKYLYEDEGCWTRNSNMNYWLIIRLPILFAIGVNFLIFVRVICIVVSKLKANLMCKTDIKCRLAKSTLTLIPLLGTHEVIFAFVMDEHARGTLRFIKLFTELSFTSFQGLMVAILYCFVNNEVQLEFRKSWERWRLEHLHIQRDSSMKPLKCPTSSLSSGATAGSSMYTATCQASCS
Source text: (§1) Evaluation of agonist activity against human GIPR, human GLP-1R and human glucagon R using rise in intracellular cAMP concentration as index
Four copies of the cAMP response sequence and the Zeocin resistance gene were introduced to pGL3(R2.2)-Basic Vector (Promega) to construct Cre-luc(Zeo) reporter plasmid.
The human GLP-1R gene having a sequence identical to the sequence of GenBank Accession No. NM_002062 was cloned into pIRESneo3 vector to prepare hGLP-1/pIRESneo3.
The Cre-luc(Zeo) obtained in (3) and the plasmid hGLP-1/pIRESneo3 obtained in (5) were introduced to CHO-K1 cells to obtain transformants. Next, a cell line induced to express luciferase, i.e., hGLP-1R/CRE-luc/CHO-K1 cells, were selected from the obtained transformants by the addition of GLP-1.
(§2) The hGIPR/CRE-LUC/CHO-K1 cells were inoculated at a cell density of 25 μL/well (5×10^4 cells/well) to a 384-well white plate (Corning), and cultured overnight in Ham F12 medium containing 10% fetal bovine serum, 100 U/mL penicillin and 100 μg/mL streptomycin in a CO2 incubator of 37° C. A medium containing a test compound was added at a concentration of 5 μL/well to the cells, and the resultant cells were incubated for 4 hours in a CO2 incubator of 37° C. to give the final concentration of 1 μM. PicaGene LT7.5 (Toyo Ink Co., Ltd.) was added thereto at a concentration of 30 μL/well, and the mixture was shaken with light shielded. After 30 minutes, the luciferase activity was measured using a plate reader Envision (PerkinElmer). The luciferase activity in the presence of 10 nM GIP was defined as 100%, and the luciferase activity from the addition of DMSO instead of the test compound was defined as 0%. The GIPR agonist activity was calculated with a rise in intracellular cAMP concentration as an index.
The GLP-1R agonist activity was assayed in the same way as above using the hGLP-1R/CRE-luc/CHO-K1 cells. The luciferase activity in the presence of 10 nM GLP-1 was defined as 100%, and the luciferase activity from the addition of DMSO instead of the test compound was defined as 0%. The GLP-1R agonist activity was calculated with a rise in intracellular cAMP concentration as an index.

[2] = target: T2, human GIPR (Homo sapiens, UniProt P48546); assay: Agonist activity against human GIPR, CRE-luciferase reporter assay (rise in intracellular cAMP) in hGIPR/CRE-LUC/CHO-K1 cells
T2 construct: expressed in transfected cells; host or cells: CHO-K1 (CRE-LUC/CHO-K1), plasmid hGIPR/pMSRα-neo
T2 sequence (P48546 22-466): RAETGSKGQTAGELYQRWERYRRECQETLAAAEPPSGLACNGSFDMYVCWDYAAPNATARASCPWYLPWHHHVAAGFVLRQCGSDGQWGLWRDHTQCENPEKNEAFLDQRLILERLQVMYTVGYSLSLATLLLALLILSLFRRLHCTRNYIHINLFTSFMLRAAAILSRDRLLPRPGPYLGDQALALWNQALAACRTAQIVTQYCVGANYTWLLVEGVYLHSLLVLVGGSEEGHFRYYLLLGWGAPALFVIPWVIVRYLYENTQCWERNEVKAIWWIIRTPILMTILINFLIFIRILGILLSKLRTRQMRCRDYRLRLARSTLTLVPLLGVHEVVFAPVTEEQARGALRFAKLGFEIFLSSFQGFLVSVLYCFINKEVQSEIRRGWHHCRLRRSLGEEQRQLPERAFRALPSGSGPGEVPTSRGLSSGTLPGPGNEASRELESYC
Source text: as §1
The human GIPR gene having a sequence identical to the sequence of GenBank Accession No. U39231 was cloned into pMSRα-neo vector to prepare hGIPR/pMSRα-neo.
(§3) The luciferase reporter gene having an upstream cAMP response sequence was introduced to CHO-K1 cells to construct CRE-LUC/CHO-K1 cells.
The plasmid hGIPR/pMSRα-neo obtained in (1) was introduced to the CRE-LUC/CHO-K1 cells obtained in (2) to obtain transformants. Next, a cell line induced to express luciferase, i.e., hGIPR/CRE-LUC/CHO-K1 cells, were selected from the obtained transformants by the addition of GIP.
as §2

[3] = target: T3, human glucagon R (Homo sapiens, UniProt P47871); assay: Agonist activity against human glucagon R, CRE-luciferase reporter assay in hGlucagonR/CRE-LUC/CHO-K1 cells
T3 construct: expressed in transfected cells; host or cells: CHO-K1 (CRE-LUC/CHO-K1), plasmid hGlucagonR/pMSRα-neo
T3 sequence (P47871 26-477): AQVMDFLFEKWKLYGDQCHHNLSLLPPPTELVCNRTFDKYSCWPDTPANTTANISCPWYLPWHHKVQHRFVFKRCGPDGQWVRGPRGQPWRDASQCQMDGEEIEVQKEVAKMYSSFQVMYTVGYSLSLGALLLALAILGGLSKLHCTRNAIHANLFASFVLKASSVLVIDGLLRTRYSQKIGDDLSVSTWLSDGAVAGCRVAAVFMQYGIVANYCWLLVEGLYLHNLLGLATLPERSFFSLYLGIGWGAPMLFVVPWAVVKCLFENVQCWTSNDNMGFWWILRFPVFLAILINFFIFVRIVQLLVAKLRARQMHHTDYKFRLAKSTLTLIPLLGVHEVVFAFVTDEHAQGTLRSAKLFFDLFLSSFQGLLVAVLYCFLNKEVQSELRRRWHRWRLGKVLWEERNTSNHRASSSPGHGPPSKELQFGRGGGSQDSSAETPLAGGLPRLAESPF
Source text: as §1, §3
The human glucagon R gene having a sequence identical to the sequence of GenBank Accession No. NM_000160 was cloned into pMSRα-neo vector to prepare hGlucagonR/pMSRα-neo.
The plasmid hGlucagonR/pMSRα-neo obtained in (7) was introduced to the CRE-LUC/CHO-K1 cells obtained in (2) to obtain transformants. Next, a cell line induced to express luciferase, i.e., hGlucagonR/CRE-LUC/CHO-K1 cells, were selected from the obtained transformants by the addition of glucagon.
as §2
The glucagon R agonist activity was assayed in the same way as above using the hGlucagonR/CRE-LUC/CHO-K1 cells. The luciferase activity in the presence of 10 nM glucagon was defined as 100%, and the luciferase activity from the addition of DMSO instead of the test compound was defined as 0%. The glucagon agonist activity was calculated with a rise in intracellular cAMP concentration as an index.

Row | SMILES | EC50 [1] [nM] | EC50 [2] [pM] | EC50 [3] [nM]
1 | CC[C@H](C)[C@H](NC(=O)[C@H](C)NC(=O)[C@H](Cc1ccc(O)cc1)NC(=O)[C@H](CC(=O)O)NC(=O)[C@H](CO)NC(=O)[C@@H](NC(=O)[C@](C)(Cc1ccccc1)NC(=O)[C@@H](NC(=O)CNC(=O)[C@H](CCC(=O)O)NC(=O)C(C)(C)NC(=O)[C@@H](N)Cc1ccc(O)cc1)[C@@H](C)O)[C@@H](C)O)C(=O)NC(C)(C)C(=O)N[C@@H](CC(C)C)C(=O)N[C@@H](CC(=O)O)C(=O)N[C@@H](CCCCN)C(=O)N[C@@H](CCC(N)=O)C(=O)N[C@@H](C)C(=O)N[C@@H](CCC(N)=O)C(=O)N[C@@H](C)C(=O)N[C@@H](CCC(=O)O)C(=O)N[C@@H](Cc1ccccc1)C(=O)N[C@H](C(=O)N[C@@H](CCCCN)C(=O)N[C@@H](Cc1c[nH]c2ccccc12)C(=O)N[C@@H](CC(C)C)C(=O)N[C@@H](CC(C)C)C(=O)N[C@@H](CCCCN)C(=O)NCC(=O)NCC(=O)N1CCC[C@H]1C(=O)N[C@@H](CO)C(=O)N[C@@H](CO)C(=O)NCC(=O)N[C@@H](C)C(=O)N1CCC[C@H]1C(=O)N1CCC[C@H]1C(=O)N1CCC[C@H]1C(=O)N[C@@H](CO)C(=O)N[C@@H](CCCCN)C(N)=O)C(C)C [Example 1] (H-Y[Aib]EGT[αMeF]TSDYAI[Aib]LDKQAQAEFVKWLLKGGPSSGAPPPSK-NH2) | 0.012 | 8.1 | > 1000
2 | CC[C@H](C)[C@H](NC(=O)[C@H](C)NC(=O)[C@H](Cc1ccc(O)cc1)NC(=O)[C@H](CC(=O)O)NC(=O)[C@H](CO)NC(=O)[C@@H](NC(=O)[C@](C)(Cc1ccccc1)NC(=O)[C@@H](NC(=O)CNC(=O)[C@H](CCC(=O)O)NC(=O)C(C)(C)NC(=O)[C@@H](N)Cc1ccc(O)cc1)[C@@H](C)O)[C@@H](C)O)C(=O)NC(C)(C)C(=O)N[C@@H](CC(C)C)C(=O)N[C@@H](CC(=O)O)C(=O)N[C@@H](CCCCN)C(=O)N[C@@H](CCC(N)=O)C(=O)N[C@@H](C)C(=O)N[C@@H](CCC(N)=O)C(=O)N[C@@H](CO)C(=O)N[C@@H](CCC(=O)O)C(=O)N[C@@H](Cc1ccccc1)C(=O)N[C@H](C(=O)N[C@@H](CCCCN)C(=O)N[C@@H](Cc1c[nH]c2ccccc12)C(=O)N[C@@H](CC(C)C)C(=O)N[C@@H](CC(C)C)C(=O)N[C@@H](CCCCN)C(=O)NCC(=O)NCC(=O)N1CCC[C@H]1C(=O)N[C@@H](CO)C(=O)N[C@@H](CO)C(=O)NCC(=O)N[C@@H](C)C(=O)N1CCC[C@H]1C(=O)N1CCC[C@H]1C(=O)N1CCC[C@H]1C(=O)N[C@@H](CO)C(=O)N[C@@H](CCCCN)C(N)=O)C(C)C [Example 3] (H-Y[Aib]EGT[αMeF]TSDYAI[Aib]LDKQAQSEFVKWLLKGGPSSGAPPPSK-NH2) | 0.013 | 7.1 | > 1000
3 | CC[C@H](C)[C@H](NC(=O)C(C)(C)NC(=O)[C@H](Cc1ccc(O)cc1)NC(=O)[C@H](CC(=O)O)NC(=O)[C@H](CO)NC(=O)[C@@H](NC(=O)[C@](C)(Cc1ccccc1)NC(=O)[C@@H](NC(=O)CNC(=O)[C@H](CCC(=O)O)NC(=O)C(C)(C)NC(=O)[C@@H](N)Cc1ccc(O)cc1)[C@@H](C)O)[C@@H](C)O)C(=O)NC(C)(C)C(=O)N[C@@H](CC(C)C)C(=O)N[C@@H](CC(=O)O)C(=O)N[C@@H](CCCCN)C(=O)N[C@@H](CCC(N)=O)C(=O)N[C@@H](C)C(=O)N[C@@H](CCC(N)=O)C(=O)N[C@@H](CO)C(=O)N[C@@H](CCC(=O)O)C(=O)N[C@@H](Cc1ccccc1)C(=O)N[C@H](C(=O)N[C@@H](CCCCN)C(=O)N[C@@H](Cc1c[nH]c2ccccc12)C(=O)N[C@@H](CC(C)C)C(=O)N[C@@H](CC(C)C)C(=O)N[C@@H](CCCCN)C(=O)NCC(=O)NCC(=O)N1CCC[C@H]1C(=O)N[C@@H](CO)C(=O)N[C@@H](CO)C(=O)NCC(=O)N[C@@H](C)C(=O)N1CCC[C@H]1C(=O)N1CCC[C@H]1C(=O)N1CCC[C@H]1C(=O)N[C@@H](CO)C(=O)N[C@@H](CCCCN)C(N)=O)C(C)C [Example 4] (H-Y[Aib]EGT[αMeF]TSDY[Aib]I[Aib]LDKQAQSEFVKWLLKGGPSSGAPPPSK-NH2) | 0.0099 | 4.9 | > 1000
4 | CC[C@H](C)[C@H](NC(=O)[C@H](C)NC(=O)[C@H](Cc1ccc(O)cc1)NC(=O)[C@H](CC(=O)O)NC(=O)[C@H](CO)NC(=O)[C@@H](NC(=O)[C@](C)(Cc1ccccc1)NC(=O)[C@@H](NC(=O)CNC(=O)[C@H](CCC(=O)O)NC(=O)C(C)(C)NC(=O)[C@@H](N)Cc1ccc(O)cc1)[C@@H](C)O)[C@@H](C)O)C(=O)NC(C)(C)C(=O)N[C@@H](CC(C)C)C(=O)N[C@@H](CC(=O)O)C(=O)N[C@@H](CCCCN)C(=O)N[C@@H](CCC(N)=O)C(=O)N[C@@H](C)C(=O)N[C@@H](CCC(N)=O)C(=O)N[C@@H](C)C(=O)N[C@@H](CCC(=O)O)C(=O)N[C@@H](Cc1ccccc1)C(=O)N[C@H](C(=O)N[C@@H](CCCCN)C(=O)N[C@@H](Cc1c[nH]c2ccccc12)C(=O)N[C@@H](CC(C)C)C(=O)N[C@@H](CC(C)C)C(=O)N[C@@H](CCCCN)C(=O)NCC(=O)NCC(=O)N1CCC[C@H]1C(=O)N[C@@H](CO)C(=O)N[C@@H](CO)C(=O)NCC(=O)N[C@@H](C)C(=O)N1CCC[C@H]1C(=O)N1CCC[C@H]1C(=O)N1CCC[C@H]1C(=O)N[C@@H](CO)C(N)=O)C(C)C [Example 5] (H-Y[Aib]EGT[αMeF]TSDYAI[Aib]LDKQAQAEFVKWLLKGGPSSGAPPPS-NH2) | 0.0072 | 5.5 | > 1000
5 | CC[C@H](C)[C@H](NC(=O)C(C)(C)NC(=O)[C@H](Cc1ccc(O)cc1)NC(=O)[C@H](CC(=O)O)NC(=O)[C@H](CO)NC(=O)[C@@H](NC(=O)[C@](C)(Cc1ccccc1)NC(=O)[C@@H](NC(=O)CNC(=O)[C@H](CCC(=O)O)NC(=O)C(C)(C)NC(=O)[C@H](Cc1ccc(O)cc1)NC)[C@@H](C)O)[C@@H](C)O)C(=O)NC(C)(C)C(=O)N[C@@H](CC(C)C)C(=O)N[C@@H](CC(=O)O)C(=O)N[C@@H](CCCCN)C(=O)N[C@@H](CCC(N)=O)C(=O)N[C@@H](C)C(=O)N[C@@H](CCC(N)=O)C(=O)N[C@@H](C)C(=O)N[C@@H](CCC(=O)O)C(=O)N[C@@H](Cc1ccccc1)C(=O)N[C@H](C(=O)N[C@@H](CCCCN)C(=O)N[C@@H](Cc1c[nH]c2ccccc12)C(=O)N[C@@H](CC(C)C)C(=O)N[C@@H](CC(C)C)C(=O)N[C@@H](CCCCN)C(=O)NCC(=O)NCC(=O)N1CCC[C@H]1C(=O)N[C@@H](CO)C(=O)N[C@@H](CO)C(=O)NCC(=O)N[C@@H](C)C(=O)N1CCC[C@H]1C(=O)N1CCC[C@H]1C(=O)N1CCC[C@H]1C(=O)N[C@@H](CO)C(=O)N[C@@H](CCCCN)C(N)=O)C(C)C [Example 23] (H-[NMeY][Aib]EGT[αMeF]TSDY[Aib]I[Aib]LDKQAQAEFVKWLLKGGPSSGAPPPSK-NH2) | 0.016 | 16 | –
